From publication PMC8997913, “Lichen Secondary Metabolites Inhibit the Wnt/β-Catenin Pathway in Glioblastoma Cells and Improve the Anticancer Effects of Temozolomide” (Cells, 2022)
Where two headings read alike, the source gives them in different places.

Tests used:
[1] = system: MCF-7 breast cancer cells; set-up: method as in PMID 32096436; conditions: MCF-7, ref [31]; read-out: IC50 concentration; cited from earlier work
[2] = system: HCT-116 cells; set-up: method as in PMID 35190352; conditions: atranorin at 30 µg/mL, ref [30]; cited from earlier work
[3] = system: MDA-MB-231 breast cancer cells; set-up: method as in PMID 32096436; conditions: MDA-MB-231, ref [31]; read-out: IC50 concentration; cited from earlier work
[4] = system: HCT-116 cells; set-up: method as in PMID 35190352; conditions: HCT-116, ref [30]; cited from earlier work
[5] = system: HCT-116 cells; set-up: method as in PMID 35190352; conditions: 30 µg/mL, ref [30]; cited from earlier work
[6] = system: A-172 cells; test: MTT test, A-172; format: cell-based, human; conditions: for number of living cells: A-172, 1–100 µM; for IC50: A 172, 48 h, three independent experiments, read-out: IC50 [uM] ± SEM A-172
Description: Three human GBM cell lines were used in this study, i.e., A-172 (ATCC-CRL-1620), T98G (92090213), and U-138 MG (ATCC-HTB-16). The A-172 and U-138 MG cell lines were purchased from the American Type Culture Collection (ATCC), whereas the T98G cell line was obtained from the European Collection of Authenticated Cell Cultures (ECACC). It has been confirmed by us that O^6-methylguanine-DNA methyltransferase (MGMT), the key factor determining the response to alkylating agents, such as TMZ, is expressed in T98G and U-138 MG cells, whereas in A-172 the expression of MGMT is silenced by promoter methylation. Therefore, the cell lines differ in terms of TMZ sensitivity; A-172 is regarded as TMZ sensitive, whereas T98G and U-138 MG are TMZ resistant.
The cells were grown as monolayers (2D cell culture) in the recommended media: A-172 were grown in the ATCC-formulated DMEM (Merck, Darmstadt, Germany), whereas T98G and U-138 MG cell lines were grown in the ATCC-formulated EMEM (Merck, Darmstadt, Germany). These media were supplemented with FBS (Biowest, Nuaillé, France) to a final concentration of 10%, as well as antibiotics (penicillin and streptomycin) (Merck, Darmstadt, Germany) to the final concentrations of 1%. For the experiments, the amount of FBS was reduced to 5%. The medium for the T98G cell line was supplemented with 2 mM glutamine, 1% nonessential amino acids, and 1% sodium pyruvate (all purchased from Merck, Darmstadt, Germany).
In order to analyze the cytotoxicity of the analyzed lichen secondary metabolites, as well as to establish the appropriate concentrations for further analysis (allowing the survival of >70% of cells), we performed the MTT test. The procedure of the test was described previously. Briefly, the cells (10,000 cells per well) were seeded on the 96-well plates and left for 24 h. Afterwards, the analyzed compounds in the concentration range of 1 µM up to 100 µM were added to the cells and left for 48 h incubation. DMSO treated cells served as control. After the above-mentioned time, the cells were washed twice with warm PBS and incubated for 3 h in the presence of a fresh medium containing MTT salt (0.5 mg/mL). Then the formazan crystals were dissolved in acidic isopropanol. The absorbance was measured at 570 and 690 nm on a Tecan Infinite M200 microplate reader (Grödig, Austria). The experiments were repeated at least three times.

[7] = system: HeLa cells; set-up: method as in PMID 35190352; conditions: ref [30]; cited from earlier work
[8] = system: NIH3T3 cells; set-up: method as in PMID 35190352; conditions: NIH3T3, ref [30]; cited from earlier work
[9] = system: T98G cells; conditions: taken from the literature, ref [5]; read-out: IC50 [uM] ± SEM T98G; cited from earlier work
[10] = system: A-172 cells; conditions: taken from the literature, ref [5]; read-out: IC50 [uM] ± SEM A-172; cited from earlier work
[11] = system: T98G cells; test: ROS (superoxide) generation, flow cytometry, T98G; format: cell-based, human; conditions: 48 h
Description: Based on the MTT test, the lichen secondary metabolite concentrations allowing the survival of more than 70% of cells were chosen for the subsequent experiments. The compounds were added as follows: A-172 cells—atranorin 25 µM, caperatic acid 50 µM, physodic acid 25 µM, squamatic acid 25 µM, salazinic acid 50 µM, and lecanoric acid 100 µM; T98G cells—atranorin 50 µM, caperatic acid 100 µM, physodic acid 25 µM, squamatic acid 50 µM, salazinic acid 100 µM, and lecanoric acid 100 µM; U-138 MG cells—atranorin 25 µM, caperatic acid 50 µM, physodic acid 25 µM, squamatic acid 50 µM, salazinic acid 50 µM, and lecanoric acid 100 µM. […]
The intracellular detection of superoxide radicals was detected by flow cytometric analysis after the staining with dihydroethidium, using The Muse® Oxidative Stress Kit (Merck, Darmstadt, Germany). Briefly, 100,000 cells per well were seeded on 6-well plates and after a 24 h incubation they were treated with the analyzed lichen secondary metabolites in the concentrations allowing >70% of cell survival; cells treated with DMSO were used as the negative control. […] The obtained data were evaluated using Muse® Analysis Software ver. […]

SMILES | apoptosis induction [2] | cell cycle distribution [4] | viability of HCT-116 cells [5] | number of living cells ([6]; 48 h) | IC50 ([6]; Homo sapiens) [µM] | other results
COC(=O)c1c(C)cc(OC(=O)c2c(C)cc(O)c(C=O)c2O)c(C)c1O [Atranorin] | significantly induced apoptosis | no significant effect | significantly reduced | reduced the number of living cells in the whole analyzed concentration range | 90.9 ± 3.7 | IC50 [1]: 7.55 ± 1.2 µM; IC50 [3]: 5.36 ± 0.85 µM
CCCCCCCCCCCCCCC(C(=O)O)C(O)(CC(=O)OC)C(=O)O (stereo not drawn) [Caperatic acid] |  |  |  |  | 80.1 ± 1.88 | viability at 100 µM ([6]; Homo sapiens, A-172, highest tested concentration (100 µM), 48 h): 11.7 ± 5.51%
Cc1cc(OC(=O)c2c(C)cc(O)cc2O)cc(O)c1C(=O)O [Lecanoric acid] | did not induce apoptosis | cell cycle arrest in the G2 phase | significantly reduced |  | > 100 | cell cycle distribution [7]: cell cycle arrest in the G2 phase; cell cycle distribution [8]: cell cycle arrest in the G2 phase; cells killed ([6]; A-172, 100 µM, 48 h): ~ 30%
Cc1cc(O)c(C=O)c2c1C(=O)Oc1c(CO)c(O)c3c(c1O2)C(O)OC3=O (stereo not drawn) [Salazinic acid] |  |  |  |  |  | IC50 [9]: > 100 µM; IC50 [10]: > 100 µM
COc1cc(C)c(C(=O)Oc2cc(C)c(C(=O)O)c(O)c2C)c(O)c1C(=O)O [Squamatic acid] |  |  |  | reduced the number of living cells in the whole analyzed concentration range | 84.9 ± 3.62 | oxidative stress (superoxide) induction [11]: induce oxidative stress
